We go through eight molecules from patent publication US4069379A, “Semi-synthetic oleandomycins” (Pfizer Inc., priority 1976, dated 1978).

Values after ≈ are worked out from the molar mass of the structure shown. Where two headings read alike, the source gives them in different places. Some results are limits rather than exact numbers.

Assay [1] deals with Staph. aureus 01A005. Briefly: minimum inhibitory concentration (MIC), Staph. aureus 01A005. The settings on record: Staphylococcus aureus; in vitro; Staph. aureus 01A005, Gram-positive. The format is cell-based. From the text: (§1) The oleandomycin compounds of the present invention are effective in inhibiting the growth of microorganisms, especially Gram-positive microorganisms. The high activity against Gram-positive organisms shown by these compounds is contrasted in some respects with the lower activity against Gram-negative organisms. The following table illustrates the in vitro antibiotic spectrum of the compounds of the instant invention. The tests were run according to the "minimum inhibitory concentration"(MIC) procedure of Ericsson and Sherris [H. M. Ericsson and J. C. Sherris, Acta. Pathol. Microbiol. Scand. Suppl., 217B 64 (1971)].

Assay [2] deals with Staph. aureus 01A400R. Put plainly: minimum inhibitory concentration (MIC), Staph. aureus 01A400R. The conditions noted are these: Staphylococcus aureus, read-out: MIC Values, Staph. aureus 01A400R. The format is cell-based.
Text: as §1

Assay [3] deals with E. coli 51A266. Briefly: minimum inhibitory concentration (MIC), E. coli 51A266. The format is cell-based. The settings on record: Escherichia coli; in vitro; E. coli 51A266, Gram-negative.
Text: as §1

Assay [4] has as its system Klebsiella pn. 53A009. Briefly: minimum inhibitory concentration (MIC), Klebsiella pn. 53A009. The settings on record: in vitro; Klebsiella pn. 53A009, Gram-negative. The format is cell-based.
Text: as §1

The test system of assay [5] is Salm. typhm. 58D009. Briefly: minimum inhibitory concentration (MIC), Salm. typhm. 58D009. The format is cell-based. The settings on record: in vitro; Salm. typhm. 58D009, Gram-negative.
Text: as §1

Assay [6] has as its system B. subtilis. Briefly: minimum inhibitory concentration (MIC), B. subtilis. The format is cell-based. The settings on record: Bacillus subtilis, in vitro, Gram-positive.
Text: as §1

Assay [7] relates to Staph. aureus 01A005. Briefly: protection against in vivo infection of mice infected with Staph. aureus 01A005. The conditions noted are these: subcutaneous or oral administration to mice infected with Staph. aureus 01A005; compared with natural oleandomycin. As to the method: The ability of the compounds of the present invention to protect against in vivo infections was determined by subcutaneous or oral administration to mice infected with Staph. aureus 01A005. Using the test method described by Retsema [J. A. Retsema et al., Antimicr.

Where [8] appears, read: in vitro, Staph. aureus 01A400R, Gram-positive.

As to `C=C1CC(C)C(OC2OC(C)CC(N(C)C)C2OC(C)=O)C(C)C(OC2CC(OC)C(OC(C)=O)C(C)O2)C(C)C(=O)OC(C)C(C)C(OC(C)=O)C(C)C1=O` (centres unmarked) [Compound II Ac Ac Ac, 8,8a-Deoxy-8,8a-Methylene-2',4",11-Triacetyloleandomycin], the minimal inhibitory concentration (MIC) (in general, the least concentration at which growth counts as inhibited) in assay [1] was 25 mg/L (≈ 31.3 µM); in assay [2] (setting [8]), 200 mg/L (≈ 251 µM); in assay [3], > 200 mg/L; in assay [4], > 200 mg/L; in assay [5], > 200 mg/L.

Turning to `C=C1CC(C)C(OC2OC(C)CC(N(C)C)C2OC(C)=O)C(C)C(OC2CC(OC)C(OC(C)=O)C(C)O2)C(C)C(=O)OC(C)C(C)C(OC(=O)C(F)(F)F)C(C)C1=O` (centres unmarked) [Compound II Ac Ac drawing 7, 8,8a-Deoxy-8,8a-Methylene-2',4"-Diacetyl-11-Trifluoroacetyloleandomycin], the MIC is 25 mg/L (≈ 29.3 µM) in assay [1]; 200 mg/L (≈ 235 µM) in assay [2] (setting [8]); 25 mg/L (≈ 29.3 µM) in assay [6]; > 200 mg/L in assay [3]; > 200 mg/L in assay [4]; > 200 mg/L in assay [5].

Turning to `C=C1CC(C)C(OC2OC(C)CC(N(C)C)C2OC(C)=O)C(C)C(OC2CC(OC)C(O)C(C)O2)C(C)C(=O)OC(C)C(C)C(OC(C)=O)C(C)C1=O` (centres unmarked) [Compound II Ac H Ac, 8,8a-Deoxy-8,8a-Methylene-2',11-Diacetyloleandomycin], the MIC in assay [1] is 3.12 mg/L (≈ 4.13 µM); in assay [2] (setting [8]) it was > 200 mg/L; in assay [6], 3.12 mg/L (≈ 4.13 µM); in assay [3], > 200 mg/L; in assay [4] it was > 200 mg/L; in assay [5], > 200 mg/L.

As for `C=C1CC(C)C(OC2OC(C)CC(N(C)C)C2O)C(C)C(OC2CC(OC)C(O)C(C)O2)C(C)C(=O)OC(C)C(C)C(O)C(C)C1=O` (centres unmarked) [Compound II H H H, 8,8a-Deoxy-8,8a-Methylene-Oleandomycin], the minimum inhibitory concentration (MIC) in assay [1] is 6.25 mg/L (≈ 9.3 µM); in assay [2] (setting [8]), 25 mg/L (≈ 37.2 µM); in assay [3], > 200 mg/L; in assay [4], > 200 mg/L. The protection against infection result in assay [7] is reported as “protection against infection which was comparable to natural oleandomycin”.

In the case of `COC1CC(OC2C(C)C(=O)OC(C)C(C)C(OC(C)=O)C(C)C(=O)C3(CC3)CC(C)C(OC3OC(C)CC(N(C)C)C3OC(C)=O)C2C)OC(C)C1OC(C)=O` (centres unmarked) [Compound III Ac Ac Ac, 8,8a-Deoxy-8,8a-Cyclopropyl-2',4",11-Triacetyloleandomycin], the MIC was 1.56 mg/L (≈ 1.92 µM) in assay [1]; 12.5 mg/L (≈ 15.4 µM) in assay [2] (setting [8]); 3.12 mg/L (≈ 3.84 µM) in assay [6]; > 200 mg/L in assay [3]; > 200 mg/L in assay [4]; > 200 mg/L in assay [5].

With `COC1CC(OC2C(C)C(=O)OC(C)C(C)C(O[Si](C)(C)C)C(C)C(=O)C3(CC3)CC(C)C(OC3OC(C)CC(N(C)C)C3OC(C)=O)C2C)OC(C)C1OC(C)=O` (centres unmarked) [Compound III Ac Ac Me3 Si, 8,8a-Deoxy-8,8a-Cycloproyl-2',4"-Diacetyl-11-Trimethylsilyloleandomycin], the MIC is 3.12 mg/L (≈ 3.7 µM) in assay [1]; > 200 mg/L in assay [2] (01A400R); 12.5 mg/L (≈ 14.8 µM) in assay [6]; > 200 mg/L in assay [3]; > 200 mg/L in assay [4]; > 200 mg/L in assay [5].

For `COC1CC(OC2C(C)C(=O)OC(C)C(C)C(OC(C)=O)C(C)C(=O)C3(CC3)CC(C)C(OC3OC(C)CC(N(C)C)C3OC(C)=O)C2C)OC(C)C1O` (centres unmarked) [Compound III Ac H Ac, 8,8a-Deoxy-8,8a-Cyclopropyl-2',11-Diacetyloleandomycin], the MIC was 0.2 mg/L (≈ 0.26 µM) in assay [1]; 3.12 mg/L (≈ 4.05 µM) in assay [2] (setting [8]); 0.78 mg/L (≈ 1.01 µM) in assay [6]; > 200 mg/L in assay [3]; > 200 mg/L in assay [4]; > 200 mg/L in assay [5].

On to `COC1CC(OC2C(C)C(=O)OC(C)C(C)C(O)C(C)C(=O)C3(CC3)CC(C)C(OC3OC(C)CC(N(C)C)C3O)C2C)OC(C)C1O` (centres unmarked) [Compound III H H H, 8,8a-Deoxy-8,8a-Cyclopropyloleandomycin], for which the MIC in assay [1] is 0.2 mg/L (≈ 0.292 µM); in assay [2] (setting [8]), 1.56 mg/L (≈ 2.27 µM); in assay [6], 0.39 mg/L (≈ 0.569 µM); in assay [3], > 200 mg/L; in assay [4], > 200 mg/L; in assay [5], > 200 mg/L. The protection against infection entry in assay [7] is reported as “protection against infection which was comparable to natural oleandomycin”.
